Assay results from PubChem BioAssay AID248 (DTP/NCI, 2004).
Where “and” joins values, the source holds several entries; their conditions need not be identical. Equal entries are not always repeated. Inconclusive results and toxic doses are left out.

Tested on: L1210 leukemia ip in BDF1 mice, survival T/C
Assay: NCI In Vivo Anticancer Drug Screen. Data for tumor model L1210 Leukemia (intraperitoneal) in B6D2F1 (BDF1) mice
Details: endpoint: mean survival time, higher = longer survival
Summary of the method: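 Mice bearing the transplanted tumor received compound or vehicle. Survival of the treated group was divided by that of the vehicle-treated control group to give the ratio.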

Compound: COC1CC(NC(=O)N(C)N=O)C(O)C(C)O1 (centres undefined)
- T/C (dose: 400.0 mg/kg/injection, schedule: Q04DX003 (ip), vehicle: saline): 106 % of control
- T/C (dose: 500.0 mg/kg/injection, schedule: Q04DX003 (ip), vehicle: saline): 101 % of control

Compound: COc1ccc(O)c(/C=N/NC(N)=S)c1
- T/C (dose: 100.0 mg/kg/injection, schedule: Q01DX009 (ip), vehicle: Klucel (hydroxypropylcellulose) (HPC)): 100 % of control
- T/C (dose: 100.0 mg/kg/injection, schedule: Q04DX003 (ip), vehicle: Klucel (hydroxypropylcellulose) (HPC)): 115 % of control
- T/C (dose: 200.0 mg/kg/injection, schedule: Q01DX009 (ip), vehicle: Klucel (hydroxypropylcellulose) (HPC)): 104 % of control
- T/C (dose: 200.0 mg/kg/injection, schedule: Q04DX003 (ip), vehicle: Klucel (hydroxypropylcellulose) (HPC)): 96 % of control
- T/C (dose: 400.0 mg/kg/injection, schedule: Q01DX009 (ip), vehicle: Klucel (hydroxypropylcellulose) (HPC)): 100 % of control
- T/C (dose: 400.0 mg/kg/injection, schedule: Q04DX003 (ip), vehicle: Klucel (hydroxypropylcellulose) (HPC)): 97 % of control

Compound: COc1ccc(OC)c(OC)c1CC(C)N (centres undefined)
- T/C (dose: 25.0 mg/kg/injection, schedule: Q01DX009 (ip), vehicle: saline): 108 % of control
- T/C (dose: 50.0 mg/kg/injection, schedule: Q01DX009 (ip), vehicle: saline): 104 % of control

Compound: CN1CCC(C[CH2][Sn]([c]2ccccc2)([c]2ccccc2)[c]2ccccc2)CC1
- T/C (dose: 25.0 mg/kg/injection, schedule: Q04DX002 (ip), vehicle: saline with Tween-80): 100 % of control

Compound: C=CCCC1(Cc2ccccc2)C(=O)NC(=O)NC1=O
- T/C (dose: 75.0 mg/kg/injection, schedule: Q01DX001 (ip), vehicle: saline): 97 % of control
- T/C (dose: 150.0 mg/kg/injection, schedule: Q01DX001 (ip), vehicle: saline): 97 % of control

Compound: CC1=C(C(=O)O)CC(S(=O)(=O)O)C1(C)C (centres undefined)
- T/C (dose: 75.0 mg/kg/injection, schedule: Q01DX001 (ip), vehicle: acetone): 96 % of control
- T/C (dose: 150.0 mg/kg/injection, schedule: Q01DX001 (ip), vehicle: acetone): 96 % of control
- T/C (dose: 300.0 mg/kg/injection, schedule: Q01DX001 (ip), vehicle: acetone): 92 % of control

Compound: O/N=C1\c2ccccc2-c2cccc(I)c21
- T/C (dose: 100.0 mg/kg/injection, schedule: Q01DX001 (ip), vehicle: carboxymethylcellulose (CMC)): 92 % of control
- T/C (dose: 200.0 mg/kg/injection, schedule: Q01DX001 (ip), vehicle: carboxymethylcellulose (CMC)): 92 % of control
- T/C (dose: 400.0 mg/kg/injection, schedule: Q01DX001 (ip), vehicle: carboxymethylcellulose (CMC)): 94 % of control

Compound: ClCC1COC(Cc2ccccc2)O1 (centres undefined)
- T/C (dose: 222.0 mg/kg/injection, schedule: Q01DX Z (ip), vehicle: saline): 97 % of control
- T/C (dose: 333.0 mg/kg/injection, schedule: Q01DX Z (ip), vehicle: saline): 97 % of control
- T/C (dose: 500.0 mg/kg/injection, schedule: Q01DX Z (ip), vehicle: saline): 103 % of control

Compound: NC1CONC1=O (centres undefined)
- T/C (dose: 100.0 mg/kg/injection, schedule: Q01DX009 (ip), vehicle: saline with Tween-80): 101 % of control
- T/C (dose: 200.0 mg/kg/injection, schedule: Q01DX009 (ip), vehicle: saline with Tween-80): 98 % of control
- T/C (dose: 400.0 mg/kg/injection, schedule: Q01DX009 (ip), vehicle: saline with Tween-80): 98 % of control

Compound: CCOc1ccc(N)c(O)c1
- T/C (dose: 75.0 mg/kg/injection, schedule: Q01DX001 (ip), vehicle: carboxymethylcellulose (CMC)): 98 % of control and 102 % of control
- T/C (dose: 150.0 mg/kg/injection, schedule: Q01DX001 (ip), vehicle: carboxymethylcellulose (CMC)): 93 % of control

Compound: O=C(O)C1CCC1C(=O)O (centres undefined)
- T/C (dose: 100.0 mg/kg/injection, schedule: Q04DX002 (ip), vehicle: saline): 90 % of control
- T/C (dose: 200.0 mg/kg/injection, schedule: Q04DX002 (ip), vehicle: saline): 90 % of control
- T/C (dose: 400.0 mg/kg/injection, schedule: Q04DX002 (ip), vehicle: saline): 87 % of control

Compound: CCOC(=O)C1=C(C)N(Cc2ccccc2)C(C)=C(C(=O)OCC)C1(C)C
- T/C (dose: 100.0 mg/kg/injection, schedule: Q04DX003 (ip), vehicle: saline with Tween-80): 101 % of control
- T/C (dose: 200.0 mg/kg/injection, schedule: Q04DX003 (ip), vehicle: saline with Tween-80): 98 % of control
- T/C (dose: 400.0 mg/kg/injection, schedule: Q04DX003 (ip), vehicle: saline with Tween-80): 106 % of control

Compound: COC(=O)CC1=C(C)CCc2cc3c(cc21)sc1ccccc13
- T/C (dose: 100.0 mg/kg/injection, schedule: Q01DX001 (ip), vehicle: saline): 94 % of control
- T/C (dose: 200.0 mg/kg/injection, schedule: Q01DX001 (ip), vehicle: saline): 94 % of control
- T/C (dose: 400.0 mg/kg/injection, schedule: Q01DX001 (ip), vehicle: saline): 101 % of control

Compound: O=C(/C=C/c1ccccc1)C1(c2ccccc2)CC1
- T/C (dose: 100.0 mg/kg/injection, schedule: Q01DX001 (ip), vehicle: Klucel (hydroxypropylcellulose) (HPC)): 98 % of control
- T/C (dose: 200.0 mg/kg/injection, schedule: Q01DX001 (ip), vehicle: Klucel (hydroxypropylcellulose) (HPC)): 100 % of control
- T/C (dose: 400.0 mg/kg/injection, schedule: Q01DX001 (ip), vehicle: Klucel (hydroxypropylcellulose) (HPC)): 98 % of control
